Tests used:
[1] = test system: powdery mildew (Erysiphe necator); experiment: Powdery mildew on leaf and fruit under the microscope, 2021 field trial (Example 3); type: in vivo; details: cabernet sauvignon; approx. 5 mM MDJ at 50 gal/acre, four applications
Procedure: MDJ was applied to fields of grape to investigate the efficacy of MDJ in preventing bunch rot on (Botrytis cinerea) and powdery mildew (Erysiphe necator) on grapes. […] (1 liter) per 50 gallons of water (approximately a 5 mM solution of MDJ). The composition was then applied (at a rate of 50 gallons per acre) to three acres (1245 vines/acre) of a cabernet sauvignon variety grown in Napa Valley, CA. There was a total of four applications between June and September using a ground spray rig. Several leaf and fruit samples were collected to access the presence of powdery mildew under the microscope and compared to leaf and fruit of plants treated with the grower standard.

Malbec wine grape juice = experiment: Key metabolites in wine grape juice by HPLC with UV detection (Example 2); type: in vivo, Vitis vinifera
Procedure: 200 grapes were randomly selected from the MDJ treated group and control group of the study described above in Example 1. Samples were pooled from each group and juice was prepared for winemaking used standard practices. The juice was analyzed for several key metabolites important for wine making (Table 6). All samples were run on Agilent HPLC with UV detection for the compounds listed below. Between 50 μL-100 μL was injected into the machine per sample.

Botrytis cinerea = experiment: Botrytis bunch rot percent disease incidence and severity, 2022 field trial (Example 4); type: in vivo
Procedure: Similar to Example 3 above, additional field trials were conducted in 2022 to investigate the efficacy of MDJ in preventing bunch rot (Botrytis cinerea). The objective of this trial was to evaluate the fungicidal efficacy of MDJ at 32 oz and 48 oz/A against Botrytis cinerea on wine grapes. Serenade® Opti at 16 oz/A was included for comparative purposes. Pro 90 a NIS with anti-foaming agent was included with each treatment at 2 oz/100 gal. The trial was conducted on 21-year-old Carignane grapes (Vitis vinifera).
The first of three foliar applications was initiated June 22nd (prior to veraison) followed a month later (July 21st when fruit was at early (5 to 10%) veraison, then at 40% veraison on August 1st. Applications were made using a backpack mistblower based on a spray volume of 80 gallons per acre. As a separate control of Erysiphe necator (powdery mildew), a maintenance fungicide program of two applications in June of fenarimol (4 oz/A) followed by two applications of fenarimol+Quintec (6 oz/A) at 2 week intervals was applied.
Temperatures throughout the trial ranged from highs of 89 to 104 degrees and lows of 50 to 66 degrees F. All treatments provided good crop safety with no phytotoxicity observed. Assessments were based on visual observation of the percent disease incidence and severity at each evaluation.

[2] = test system: Black seedless grapes (Vitis labrusca); experiment: Red grape panel analysis (ETS Laboratories), black seedless grapes (Example 5); type: in vivo; details: for Fruit catechin: ABCDE, Aug. 18, 2022
Procedure: Field trials were conducted in California 2022 (a dry year) to investigate the efficacy of MDJ in preventing Sour Rot caused by Aspergillus carbonarius (also known as summer bunch rot, abbreviated ASPECA in Table 7). Black seedless grapes (Vitis labrusca) were used in this trial. Four vines were used per plot. The plots were arranged in a randomized complete block design with six replicates (plots) per treatment. The plots were sprayed five times (ABCDE) at a rate of 500 gal/AC.
Treatments consisted of MDJ at 32 oz and 48 oz/A. A treatment of Regalia® at 1.5 qt/100 gal and Stargus® at 2 qt/100 gal was included for comparative purposes. Application D occurred at 5-10% veraison. Application E occurred at 40% veraison.
A randomly selected sample of approximately twenty wine grapes was used to evaluate the Brix and titratable acid. Another randomly selected sample (>500 g) was shipped to ETS Laboratories (Paso Robles, CA) for a red grape panel analysis (catechin, quercetin glycosides, tannin, polymeric anthocyanins, total anthocyanins, catechin/tannin index, and polymeric anthocyanins/tannin index). […] Total anthocyanins increased over 17% (449.1 in untreated controls compared to 529.3 in the group treated with 48 oz/A MDJ). An increase in quercetin glycosides, tannin, and polymeric anthocyanins, was also observed in MDJ treated plants (Table 8), as well as titratable acid (Table 9).

[3] = Malbec MDJ treated (2.5 mM, Example 1 trial), pooled 200 grapes
[4] = fruit, Aug. 18, 2022, 32 oz/a, applications ABCDE
[5] = fruit, Aug. 18, 2022, 48 oz/a, applications ABCDE

CCCCCC1C(=O)CCC1CC(=O)OC (centres unmarked) [MDJ, methyl dihydrojasmonate]
Control of powdery mildew vs grower standard [1]: the same, or better, control of powdery mildew as the grower standard | Catechin in wine grape juice (Malbec wine grape juice; [3]): 28 mg/L | Polymeric anthocyanins in wine grape juice (Malbec wine grape juice; [3]): 24 mg/L | Quercetin glycosides in wine grape juice (Malbec wine grape juice; [3]): 23 mg/L | Tannin in wine grape juice (Malbec wine grape juice; [3]): 393 mg/L | Total anthocyanins in wine grape juice (Malbec wine grape juice; [3]): 1697 mg/L | Increase of total anthocyanins vs control (Malbec wine grape juice; Malbec wine grape juice, MDJ treatment group): approximately 8% | Color of grape wine juice vs control group (Malbec wine grape juice; Malbec, MDJ treatment group, FIG. 2): richer, darker red color | Control of Botrytis incidence and severity, higher vs lower rate (Botrytis cinerea; Carignane wine grapes, higher rate of MDJ (48 oz/A)): numerically better control of Botrytis incidence and severity | B. cinerea suppression (disease incidence) vs untreated grapes (Botrytis cinerea; MDJ Elicitor at both rates (32 and 48 oz/A), 26DAC, 20 bunches per plot): significantly better B. cinerea suppression | Control of Botrytis, higher vs lower rate (Botrytis cinerea; higher rate of MDJ (48 oz/A), 7 and 14 days after the third treatment (7 and 14DAC)): significantly better control | Control of Botrytis incidence compared to the Serenade Opti standard (Botrytis cinerea; low rate of MDJ (32 oz/A), 26DAC): significantly better control of Botrytis incidence | Fruit catechin ([2]; 32 oz/a): 0.8b mg/L | Increase of total anthocyanins vs untreated controls ([2]; 48 oz/A MDJ): over 17% | total anthocyanins ([2]; 48 oz/A MDJ): 529.3 | Fruit catechin ([2]; 48 oz/a): 2.6a mg/L | Catechin vs untreated ([2]; MDJ treated plants): increase | Polymeric anthocyanins vs untreated ([2]; MDJ treated plants): increase | Quercetin glycosides vs untreated ([2]; MDJ treated plants): increase | Tannin vs untreated ([2]; MDJ treated plants): increase | catechin/tannin index [2, 4]: 0.0— | polymeric anthocyanins [2, 4]: 13.5— mg/L | polymeric anthocyanins/tannin index [2, 4]: 0.0312— | quercetin glycosides [2, 4]: 89.8— mg/L | tannin [2, 4]: 432.0— mg/L | total anthocyanins [2, 4]: 388.3— mg/L | catechin/tannin index [2, 5]: 0.0— | polymeric anthocyanins [2, 5]: 14.7— mg/L | polymeric anthocyanins/tannin index [2, 5]: 0.0304— | quercetin glycosides [2, 5]: 113.2— mg/L | tannin [2, 5]: 483.2— mg/L | total anthocyanins [2, 5]: 529.3— mg/L

Reference: US20250120399A1, “METHODS AND COMPOSITIONS FOR ALTERING METABOLITES IN VITIS SPP. AND PREVENTING PESTS AND PATHOGENS” (Impello Biosciences, Inc., priority 2022, published 2025)
